Assay results taken from US7968601B2, “Adamantyl acetamides as 11-β hydroxysteroid dehydrogenase inhibitors” (Janssen Pharmaceutica N.V., priority 2002, dated 2011).
Structures can show the parent of a compound that is named as a salt.

Columns and labels:
11b-HSD1 [1] = target: 11b-HSD1 (Homo sapiens, UniProt P28845); experiment: Enzymatic assay, 11b-HSD1 reductase activity (conversion of cortisone into cortisol); format: biochemical; details: pIC50 scored 1-3, read-out: [C1] HSD1-prot Reduct Score
Description: The effects of compounds on 11b-HSD1 dependent conversion of cortisone into cortisol (reductase activity) was studied in a reaction mixture containing 30 mM Tris-HCl buffer pH 7.2, 180 μM NADPH, 1 mM EDTA, 2 μM cortisone, 1 μl drug and/or solvent and 11 μg recombinant protein in a final volume of 100 μl.
(§1) All incubations were performed for 45 min at 37 C in a water bath. The reaction was stopped by adding 100 μl acetonitrile containing 20 μg corticosterone as internal standard. After centrifugation, the product formation was analysed in the supernatant by HPLC on a Hypersyl BDS-C18 column using 0.05 mM ammonium acetate/methanol (50/50) as solvent. In all of the aforementioned assays, the drugs to be tested were taken from a stock solution and tested at a final concentration ranging from […] to 3.10^−9M. From the thus obtained dose response curves, the pIC50 value was calculated and scored as follows; Score 1=pIC50 value<5, Score 2=pIC50 value in the range of 5 to 6, Score 3=pIC50 value>6. (in this table NT stands for Not Tested).

11b-HSD2 [2] = target: T1, 11b-HSD2 (Homo sapiens, UniProt P80365); experiment: Cellular assay, 11b-HSD2 activity in HepG2 cells; format: cell-based; set-up: endogenous in cells; host or cells: HepG2 (ATCC HB-8065); details: 4 hour pre-incubation, pIC50 scored 1-3, read-out: [C2] HSD2 cellular HepG2 Score
T1 sequence (P80365 1-405): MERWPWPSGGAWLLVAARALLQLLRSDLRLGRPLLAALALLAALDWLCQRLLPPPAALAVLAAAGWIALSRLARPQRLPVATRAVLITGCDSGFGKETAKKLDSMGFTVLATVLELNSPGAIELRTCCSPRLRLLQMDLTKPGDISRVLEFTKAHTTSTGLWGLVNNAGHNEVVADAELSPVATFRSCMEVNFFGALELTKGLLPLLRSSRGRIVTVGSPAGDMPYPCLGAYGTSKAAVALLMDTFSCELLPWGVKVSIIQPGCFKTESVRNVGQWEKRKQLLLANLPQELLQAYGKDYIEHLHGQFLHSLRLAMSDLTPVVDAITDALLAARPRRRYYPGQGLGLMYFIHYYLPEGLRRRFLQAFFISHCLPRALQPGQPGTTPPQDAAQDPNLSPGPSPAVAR
Description: The effects on 11b-HSD2 activity was studied in HepG2 and LCC-PK1-cells HepG2-cells (ATCC HB-8065) were seeded in 12 well plates at a density of 100,000 cells/ml and grown at 37 C in a humidified 5% CO2 atmosphere in MEM-Rega-3 medium supplemented with 10% heat inactivated foetal calf serum, 2 mM L-glutamine and sodium bicarbonate). Medium was refreshed twice a week. Pig kidney cells (LCC-PK1, ATCC CRL-1392) were seeded at a density of 150,000 cells/ml in 12 well plates and grown at 37 C in a humidified 5% CO2 atmosphere in Medium 199 supplemented with Earls modified salt solution, 100 U/ml penicillin, 100 μg/ml streptomycin and 10% foetal calf serum. Medium was refreshed twice a week. Twenty four hours prior to the onset of the experiment, medium was changed by medium containing 10% charcoal stripped foetal calf serum.
Following a 4 hour pre-incubation with test compound, 0.5 μCi ^3H-cortisol or corticosterone, was added to the cultures. One hour later, the medium was extracted on Extrelut^3-columns with 15 ml diethyl ether and the extract was analysed by HPLC as described above.
(§2) As for the enzymatic assays, the compounds to be tested were taken from a stock solution and tested at a final concentration ranging from […] to 3.10^−9M. From the thus obtained dose response curves, the pIC50 value was calculated and scored as follows; Score 1=pIC50 value<5, Score 2=pIC50 value in the range of 5 to 6, Score 3=pIC50 value>6. (in this table NT stands for Not Tested).

11b-HSD1 [3] = target: T2, 11b-HSD1 (Mus musculus, UniProt P50172); experiment: Cellular assay, 11b-HSD1 activity in differentiated 3T3-L1 cells; format: cell-based; details: 4 hour pre-incubation, pIC50 scored 1-3, read-out: [C2] HSD1 cellular 3T3-L1 Score
T2 construct: endogenous in cells; host or cells: 3T3-L1 (ATCC-CL-173), differentiated into adipocytes
Description: The effects on 11b-HSD1 activity was measured in differentiated 3T3-L1 cells and rat hepatocytes.
Mouse fibroblast 3T3-L1 cells (ATCC-CL-173) were seeded at a density of 16500 cells/ml in 12 well plates and grown for 7 days in DMEM medium (supplemented with 10% heat inactivated foetal calf serum, 2 mM glutamine and 25 mg gentamycin) at 37 C in a humidified 5% CO2 atmosphere. Medium was refreshed twice a week. Fibroblasts were differentiated into adipocytes at 37 C in a 5% CO2 humidified atmosphere in growth medium containing 2 μg/ml insulin, 55 μg/ml IBMX and 39.2 μg/ml dexamethasone.
Following a 4 hour pre-incubation with test compound, 0.5 μCi ^3H-cortisone or dehydrocorticosterone, was added to the cultures. One hour later, the medium was extracted on Extrelut^3-columns with 15 ml diethyl ether and the extract was analysed by HPLC as described above.
as §2

11b-HSD2 [4] = target: T1, 11b-HSD2; experiment: Enzymatic assay, 11b-HSD2 dependent dehydrogenase activity; format: biochemical; details: 11b-HSD2 dehydrogenase activity, pIC50 scored 1-3, read-out: [C1] HSD2 prot Dehydro Score
Description: The effects on the 11b-HSD2 dependent dehydrogenase activity was studied in a reaction mixture containing 0.1M sodium phosphate buffer pH 7.5, 300 μM NAD, 100 nM cortisol (of which 2 nM is 3H-radio labelled), 1 μl drug and/or solvent and 2.5 μg recombinant protein in a final volume of 100 μl.
as §1

T2 sequence (P50172 whole entry): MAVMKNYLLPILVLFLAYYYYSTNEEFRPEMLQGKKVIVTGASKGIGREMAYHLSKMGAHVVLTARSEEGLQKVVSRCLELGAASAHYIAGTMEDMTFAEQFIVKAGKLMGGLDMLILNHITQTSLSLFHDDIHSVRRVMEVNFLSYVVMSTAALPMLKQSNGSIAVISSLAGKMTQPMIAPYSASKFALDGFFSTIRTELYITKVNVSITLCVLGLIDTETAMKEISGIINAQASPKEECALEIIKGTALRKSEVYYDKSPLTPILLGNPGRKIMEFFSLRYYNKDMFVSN
Sequence of 11b-HSD1 (Homo sapiens, UniProt P28845) (P28845 whole entry): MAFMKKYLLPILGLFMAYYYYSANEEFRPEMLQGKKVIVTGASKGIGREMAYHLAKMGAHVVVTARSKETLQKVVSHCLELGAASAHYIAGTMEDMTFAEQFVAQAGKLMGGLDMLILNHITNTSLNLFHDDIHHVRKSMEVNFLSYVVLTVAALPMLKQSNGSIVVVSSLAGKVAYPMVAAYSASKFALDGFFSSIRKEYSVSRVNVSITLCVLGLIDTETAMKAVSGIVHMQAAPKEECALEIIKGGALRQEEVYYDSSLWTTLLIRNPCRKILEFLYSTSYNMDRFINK

melting point [°C]	IC50 (11b-HSD1 [1]) [µM]	IC50 (11b-HSD2 [2]) [µM]	IC50 (11b-HSD1 [3]) [µM]	IC50 (11b-HSD2 [4]) [µM]	Structure (SMILES)
155 to 160					CC(C)(C(=O)N[C@H]1[C@@H]2CC3C[C@H]1C[C@](O)(C3)C2)c1cccc(OCCN2CCOCC2)c1 (as salt: HCl) [Compound 158]
165 to 170					CN1CCN(CCOc2cccc(C(C)(C)C(=O)NC3C4CC5CC(C4)CC3C5)c2)CC1 (centres unmarked) [Compound 199]
185 to 188					O=C(N[C@@H]1[C@@H]2CC3C[C@H]1C[C@](O)(C3)C2)N1CCCc2ccccc21 [Compound 219]
170 to 172					O=C(N[C@H]1[C@@H]2CC3C[C@H]1C[C@](O)(C3)C2)N1CCCc2ccccc21 [Compound 218]
210 to 215					CC(C)(C(=O)N[C@H]1[C@@H]2CC3C[C@H]1C[C@](F)(C3)C2)c1cccc(OCC(=O)O)c1 [Compound 227]
163 to 165					O=C(NC1C2CC3CC(C2)CC1C3)N1CCCc2ccccc21 (centres unmarked) [Compound 200]
	< 1	> 10	< 1	> 10	CC(C)(C(=O)NC1C2CC3CC(C2)CC1C3)c1ccc(F)cc1 (centres unmarked) [Compound 41]
	1 to 10	> 10	< 1	> 10	CC(C)(C(=O)N[C@@H]1[C@@H]2CC3C[C@H]1C[C@@](O)(C3)C2)c1cccc(CCC(=O)O)c1 [Compound 242]
	< 1	> 10	< 1	> 10	O=C(NC1C2CC3CC(C2)CC1C3)C1=CCCc2c(Br)cccc21 (centres unmarked) [Compound 223]
	> 10	> 10	< 1	> 10	CC(C)(C(=O)NC1C2CC3CC(C2)CC1(O)C3)c1ccccc1 (centres unmarked) [Compound 91]
	> 10	> 10	< 1	> 10	O=C(O)CCc1cccc2c1CCCC2C(=O)NC1C2CC3CC(C2)CC1C3 (centres unmarked) [Compound 240]
	> 10	> 10	< 1	> 10	COc1cc(C)cc(C(C)(C)C(=O)NC2C3CC4CC(C3)CC2C4)c1 (centres unmarked) [Compound 210]
	> 10	> 10	< 1	> 10	CN(C)c1ccc(C(C)(C)C(=O)NC2C3CC4CC(C3)CC2C4)cc1 (centres unmarked) [Compound 52]
	< 1	> 10	< 1	> 10	COc1ccc(C(C)(C)C(=O)NC2C3CC4CC(C3)CC2C4)cc1 (centres unmarked) [Compound 47]
	< 1	> 10	< 1	> 10	CC(C)(C(=O)NC1C2CC3CC(C2)CC1C3)c1cccc2ccccc12 (centres unmarked) [Compound 137]
	> 10	> 10	< 1	> 10	COc1ccc(C(C)(C)C(=O)NC2C3CC4CC(C3)CC2C4)cc1OC (centres unmarked) [Compound 86]
	< 1	> 10	< 1	> 10	CC(C)(C(=O)NC1C2CC3CC(C2)CC1C3)c1cccc(CCN2CCOCC2)c1 (centres unmarked) [Compound 191]
